Laboratory results reported in patent US4788304A, “Phospholipase A2 inhibitors” (American Home Products Corporation, priority 1987, dated 1988).

Experiments:
[1] = tested on: synthesis of the arachidonic acid cyclooxygenase oxidation product TxB2; assay: Inhibition of TxB2 synthesis (cyclooxygenase product) by rat polymorphonuclear leukocytes; assay type: cell-based, rat (female Wistar); conditions: Leukocyte, A23187-stimulated rat PMN
[2] = tested on: AA-induced mouse ear edema; assay: Arachidonic acid (AA)-induced murine ear edema test; assay type: in vivo, mouse (Swiss Webster); conditions: 1 mg/ear, 30 min prior to AA, measured 1 h after AA
[3] = tested on: TPA-induced mouse ear edema; assay: TPA-induced murine ear edema test; assay type: in vivo, mouse (Swiss Webster); conditions: 1 mg/ear, 30 min after TPA, measured 4 h after TPA
[4] = tested on: rat carrageenan paw edema; assay: Rat carrageenan paw edema; assay type: in vivo, rat (Sprague-Dawley); conditions: at 50 mg/kg (peroral), 1 h prior to carrageenan; 3 h
Protocol: The compounds in the scope of the invention are further tested in the rat carrageenan paw edema to determine their ability to inhibit the acute inflammatory response.
[…] male Sprague-Dawley rats, in groups of 6 animals are injected subcutaneously in the right paw with 0.1 ml of 1% carrageenan at zero time. Mercury plethysmographic readings (ml) of the paw are made at zero time and 3 hours later. Test compounds are suspended or dissolved in 0.5% methylcellulose and given perorally 1 hour prior to carrageenan administration.
The increase in paw volume (edema in ml.) produced by the carrageenan is measured. Paw edema is calculated (3 hour volume minus zero time volume), and percent inhibition of edema is determined. Unpaired Student's t-test is used to determine statistical significance.

[5] = tested on: oxazolone-induced contact hypersensitivity in the mouse ear; assay: Oxazolone-induced contact hypersensitivity in the mouse ear; assay type: in vivo, mouse (Swiss Webster); conditions: dosed at 1 mg/ear
Protocol: The assay of this Example measures the ability of the compounds in the scope of the invention to inhibit oxazolone-induced contact hypersensitivity in the mouse ear.
Female, Swiss Webster mice (8 weeks old) are placed into groups of 6 and the abdominal area of each is shaved. The mice are sensitized to oxazolone (4-ethoxymethylene-2-phenyl-oxazol-5-one) by applying 100 μl of a 2% solution in 95% alcohol directly onto the shaved abdomen using an automatic pipette and rubbing the residual oxazolone into the skin with a round wooden stick. Six days after sensitization each mouse is challenged by applying 20 μl of a 2% oxazolone solution in 95% alcohol to the right ear (10 μl on each side) and 20 μl of alcohol alone to the left ear. Compounds for topical applications are prepared in acetone and administered to the right ear 30 min after challenge or 30 min prior to and 5 h after challenge; acetone (vehicle) is applied to the left ear. Compounds for oral administration are suspended in 0.5 ml of 0.5% methyl cellulose and given ten min prior to challenge. Ear thickness of both ears is measured in mm×10^-2 at 24 and 48 h after challenge using an Oditest caliper. Edema is calculated by subtracting the left ear thickness from the right ear thickness. Drug effects are determined by calculating the percentage change from control for each time period.

[6] = tested on: bronchospasm induced in guinea pigs by endogenous mediators of the bronchoconstriction; assay: Ovalbumin-induced bronchospasm in guinea pigs; assay type: in vivo, guinea pig (Hartley); conditions: Cavia porcellus; intraduodenally administered, 10 minutes before intravenously administered ovalbumin challenge
Protocol: The assay of this Example measures the in vivo ability of the compounds in the scope of the invention to inhibit the bronchospasm induced in guinea pigs by endogenous mediators of the bronchoconstriction.
Male Hartley strain guinea pigs weighing 250-350 g are sensitized to chicken ovalbumin (OA) (10 mg i.p.) on days 1 and 3 and used starting on day 26. The animals are anesthetized with pentobarbital sodium (50 mg/kg, i.p.), bilateral vagotomy is performed, and the jugular vein is cannulated for injection of drugs and the carotid artery for monitoring blood pressure. The trachea is cannulated for artificial ventilation by miniature Starling pump and for indirect measurement of respiratory volume changes as described, infra. Succinylcholine (2 mg/kg, i.v.) is administered to arrest spontaneous respiration. […]
Respiratory volume changes are determined by a calibrated piston whose travel is recorded, via a linear transducer, on a Beckman Dynograph recorder. Maximal bronchoconstrictor volume is determined by clamping off the trachea at the end of the experiment. Overflow volumes at minutes 1, 3 and 5 are obtained from the recorded charts.
Area under the volume overflow curve (AUC) is estimated, using the overflow values at 1, 3 and 5 minutes, and expressed as a percentage of the maximal overflow AUC (equation 1): [formula] […]

SMILES: COC(=O)C1(C(=O)CCCCOc2ccc(Cl)cc2)CO1 (stereo not drawn) [Example 6A, 2-[5-(4-Chlorophenoxy)-1-oxopentyl]-2-oxiranecarboxylic acid methyl ester]
- inhibition at 10 µM [1]: 30%
- Mouse Ear Edema Assay, % Change from Control, TOPICAL, AA [2]: -38%
- Mouse Ear Edema Assay, % Change from Control, TOPICAL, TPA [3]: -42%
- % Inhibition of paw edema [4]: 50%
- % Inhibition (oxazolone contact hypersensitivity) [5]: 34.3%
- ED50 [6]: 13.5 mg/kg
